Results taken from patent US12187672B2, “1,2-diacylglycerol compound, preparation method therefor, and immunomodulator containing same as active ingredient” (ENZYCHEM LIFESCIENCES CORPORATION, priority 2018, dated 2025).
“And” between values parts separate entries of the source, which are not always exact repeats. Equal values may be shown once.

How the values were obtained:
[1] = tested on: STAT3; assay: STAT3 activity, pGL4.47 SIE luciferase reporter in LPS-treated RAW264.7 cells; assay type: cell-based, mouse; details: sample 100 μg/ml 1 h, then LPS 1 μg/ml 18 h
Procedure: pGL4.47 [luc2P/SIE/Hygro] vector containing the sis-Inducible Element that binds to STAT3 was injected into RAW264.7 cells to confirm the degree of STAT3 activity. In DMEM (Hyclone, Thermo Scientific) medium to which 10% Fetal Bovine Serum was added, RAW264.7 cells were cultured at a concentration of 1×10^5 cells/ml, and maintained in a 5% CO2 humidified incubator at 37° C. The cultured RAW264.7 cells were inoculated into a 48 well plate by 1×10^5 cells/ml and stabilized for 18 hours. Thereafter, the pGL4.47 [luc2P/SIE/Hygro] vector containing sis-Inducible Element was mixed with Attractene to induce complex formation at room temperature for 15 minutes. This complex was treated with the cells and then further incubated for 18 hours. Thereafter, the culture solution was treated with a glycerol derivative compounds of the type shown in Table 5 below for 1 hour and then LPS (1 μg/ml) was treated and further incubated for 18 hours for STAT3 activity. Thereafter, the culture supernatant was removed for each well, and the remaining cells were lysed with a cell lysis buffer, and then cell lysate was recovered. 90 μl of luciferase reagent was mixed with 10 μl of the recovered cell lysate, and the degree of fluorescence was confirmed using a luminometer.

[2] = tested on: IL-6; assay: LPS-induced IL-6 secretion reduction in RAW264.7 cells (ELISA); assay type: cell-based, mouse; details: for IL-6 concentration (average ± deviation): sample 100 μg/ml 1 h, then LPS 1 μg/ml 24 h
Outline: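 Mouse RAW264.7 macrophages in DMEM/10% FBS were plated at 5×10^4 cells/ml, rested for 15 h, treated with compound for 1 h, then stimulated with 1 μg/ml LPS for 24 h at 37 °C. IL-6 in the supernatant was measured by sandwich ELISA (HRP, OD 450 nm) and expressed as reduction rate or concentration.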

[3] = tested on: Aeruginosa K (PAK) of the genus Psuedomonas; assay: Infection inhibition test in mouse model of lung infection with bacteria (CFU in BALF); assay type: in vivo, Balb/c mice; details: 250 mg/kg oral
Procedure: For getting mice model whose lung are infected with bacteria, 12-week old Balb/c male mice were purchased from Koatech Corporation (South Korea) and maintained in certain pathogen-free facilities under moderate temperature and lights cycles. For obtain bacteria to induce lung infection, Aeruginosa K (PAK) of the genus Psuedomonas was incubated in LB broth or LB agar plate overnight at 37° C., and then the culture solution was centrifuged at 13,000×g for 2 minutes to obtain a bacterial pellet. Thereafter, the bacterial pellet was suspended in phosphate buffered saline (PBS), and the optical density of the serial dilution was measured and plated on an agar plate, so that bacterial inoculum having a colony forming unit (CFU) was obtained. A bacterial inoculum solution for infection was prepared at a concentration of 1×10^5 CFU per 20 μl, and the prepared PAK bacterial inoculum (1×10^5 CFU per mouse in 20 μl PBS) was administered to a total of 8 12-week-old Balb/c mice by nasal injection. Four of the PAK-administered groups were orally administered the compound of the present invention (EC_A21) at 250 mg/kg, and PBS was administered to the control group. After 4 hours, samples of bronchoalveolar lavage fluid (BALF) from P. aeruginosa-infected mice were collected, and the collected BALF samples were diluted 1:1000 with PBS. The diluted samples were plated on LB agar and then incubated overnight at 37° C. CFU levels in BALF were confirmed by measuring the number of surviving bacteria by a plate count method. The results are shown in Table 8, FIG. 7 and FIG. 8 below.

[4] = tested on: STAT3; assay: IL-6-induced STAT3 activity, SEAP expression in HEK-Blue IL-6 cells; assay type: cell-based; details: HEK-Blue IL-6 cells; for STAT3 activity_SEAP expression(%) (average ± deviation): sample 100 μg/ml 1 h, then IL-6 5 ng/ml 24 h, negative control = 100
Outline: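 HEK-Blue IL-6 reporter cells at 1×10^5 cells/ml in DMEM with 10% FBS were exposed to compound for 1 h, then IL-6 (5 ng/ml) for 24 h at 37 °C. STAT3-driven SEAP in supernatant was detected with Quanti-Blue (1:10, ~30 min, 37 °C) at 650 nm.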

| Compound | STAT3 activity_Luciferase activity (average ± deviation) [1] | IL-6 concentration (average ± deviation) ([2]; Table 3) [pg/µL] | other results |
| --- | --- | --- | --- |
| CCCCC/C=C\C/C=C\CCCCCCCC(=O)OC(COC(=O)CCCCCCCCCCCCCCC)COC(=O)C1CC1 (centres unmarked) [EC_A79] | 1183.5 ± 51.6 | 0.652 ± 0.145 | – |
| CCCCC/C=C\C/C=C\CCCCCCCC(=O)OC(COC(=O)CC)COC(=O)CCCCCCCCCCC (centres unmarked) [EC_A91] | 746.5 ± 26.1 | 0.752 ± 0.068 | – |
| CCCCC/C=C\C/C=C\CCCCCCCC(=O)OC(COC(=O)CCCCCCCCC)COC(=O)C(C)(C)C (centres unmarked) [EC_A101] | 581.7 ± 8.1 | 0.645 ± 0.057 | – |
| CCCCC/C=C\C/C=C\CCCCCCCC(=O)OC(COC(=O)CCCCCCCCC)COC(=O)C(C)C (centres unmarked) [EC_A100] | 572.2 ± 60.4 | 0.749 ± 0.054 | – |
| CCCCC/C=C\C/C=C\CCCCCCCC(=O)OC(COC(=O)CCCCCCC)COC(=O)C(C)C (centres unmarked) [EC_A88] | 1171.5 ± 146.3 | 0.792 ± 0.086 | – |
| CCCCC/C=C\C/C=C\CCCCCCCC(=O)OC(COC(=O)CCC)COC(=O)CCCCCCC (centres unmarked) [EC_A85] | 1126.7 ± 32.1 | 0.741 ± 0.071 | – |
| CCCCC/C=C\C/C=C\CCCCCCCC(=O)OC(COC(=O)CC)COC(=O)CCCCCCCCC (centres unmarked) [EC_A97] | 573.2 ± 146.7 | 0.745 ± 0.015 | – |
| CCCCC/C=C\C/C=C\CCCCCCCC(=O)OC(COC(=O)CCCC)COC(=O)CCCCCCCCC (centres unmarked) [EC_A99] | 353.2 ± 83.0 | 0.666 ± 0.075 | – |
| CCCCCC=CCC=CCCCCCCCC(=O)OC(COC(=O)CCCCCCC)COC(=O)C(C)(C)C (centres unmarked) [EC_A89] | 1087.7 ± 257.7 | 0.736 ± 0.097 | – |
| CCCCC/C=C\C/C=C\CCCCCCCC(=O)OC(COC(=O)CCC)COC(=O)CCCCCCCCCCC (centres unmarked) [EC_A92] | 820 ± 448.3 | 0.800 ± 0.038 | – |
| CCCCC/C=C\C/C=C\CCCCCCCC(=O)OC(COC(=O)CC)COC(=O)CCCCCCCCCCCCCCC (centres unmarked) [EC_A78] | 912.5 ± 214.2 | 0.708 ± 0.086 | – |
| CCCCC/C=C\C/C=C\CCCCCCCC(=O)OC(COC(=O)CCCCCCCCC)COC(=O)C(C)CC (centres unmarked) [EC_A102] | 602 ± 11.3 | 0.738 ± 0.070 | – |
| CCCCC/C=C\C/C=C\CCCCCCCC(=O)OC(COC(=O)CCCC)COC(=O)CCCCCCC (centres unmarked) [EC_A86] | 866.2 ± 15.2 | 0.796 ± 0.045 | – |
| CCCCC/C=C\C/C=C\CCCCCCCC(=O)OC(COC(=O)CCCCCC)COC(=O)CCCCCCCCCCCCCCC (centres unmarked) [EC_A83] | 510.2 ± 27.2 | 0.658 ± 0.070 | – |
| CCCCC/C=C\C/C=C\CCCCCCCC(=O)OC(COC(=O)CCC)COC(=O)CCCCCCCCC (centres unmarked) [EC_A98] | 370.7 ± 35.0 | 0.619 ± 0.036 | – |
| CCCCC/C=C\C/C=C\CCCCCCCC(=O)OC(COC(=O)CCCC)COC(=O)CCCCCCCCCCC (centres unmarked) [EC_A93] | 536.2 ± 222.3 | 0.765 ± 0.055 | – |
| CCCCC/C=C\C/C=C\CCCCCCCC(=O)OC(COC(=O)CC)COC(=O)CCCCCCC (centres unmarked) [EC_A87] | 1312 ± 34.6 | 0.705 ± 0.158 | – |
| CCCCC/C=C\C/C=C\CCCCCCCC(=O)OC(COC(=O)CCCCCCCCCCCCCCC)COC(C)C (centres unmarked) [EC_A21] | – | – | bacterial CFU in BALF, average ± deviation ([3]; PAK 1×10^5 CFU nasal, BALF after 4 hours, 4 Balb/c mice): 14.0 ± 6.0 10^3 CFU/ml; bacterial CFU in BALF, individual mouse ([3]; PAK 1×10^5 CFU nasal, BALF after 4 hours, Balb/c mice, 250 mg/kg): 8.0 10^3 CFU/ml and 19.0 10^3 CFU/ml and 20.0 10^3 CFU/ml and 14.0 10^3 CFU/ml; bacterial CFU in BALF versus PAK alone group (in words) ([3]; fourth hour after PAK administration): significantly lower than that of the PAK alone group; STAT3 activity_SEAP expression(%) (average ± deviation) [4]: 224.1 ± 22.4%; IL-6 concentration (average ± deviation) ([2]; Table 2): 176 ± 2 pg/µL |
| CCCCC/C=C\C/C=C\CCCCCCCC(=O)OC(COC(C)=O)COC(=O)CCCCCCCCCCCCCCC (centres unmarked) [EC-18, 1-palmitoyl-2-linoleoyl-3-acetylglycerol, reference compound] | 491.5 ± 41.7 | 0.491 ± 0.063 | decrease of STAT3 activity compared to the IL-6 cytokine-treated group ([4]; 100 μg/ml): about 25%; STAT3 activity_SEAP expression(%) (average ± deviation) [4]: 173.0 ± 7.9%; decrease of IL-6 secretion/expression compared to the LPS-treated group ([2]; 100 μg/ml): about 30%; IL-6 concentration (average ± deviation) ([2]; Table 2): 194 ± 11 pg/µL |
| CCCCC/C=C\C/C=C\CCCCCCCC(=O)OC(COC(=O)CCCCCCCCCCC)COC(=O)C(C)CC (centres unmarked) [EC_A96] | 1136.7 ± 63.9 | 0.788 ± 0.006 | – |
